Literature values, collected in patent US20170312324A1, “USE OF MAITAKE AND MAITAKE GRIFOLAN D COMPONENT IN PREPARATION OF ANTIDEPRESSANT DRUG” (Yunnan University, priority 2014, published 2017).

Test system: tumor
Settings: comparison experiment with mitomycin

CO[C@@]12[C@H](COC(N)=O)C3=C(C(=O)C(C)=C(N)C3=O)N1C[C@@H]1N[C@@H]12 [mitomycin]
anti-tumor rate / tumor inhibition rate: 45%
